The record followed here is patent US9707178B2, “Pharmaceutical composition” (Lek Pharmaceuticals, d.d., priority 2006, dated 2017).

Series [1] is described as follows: pH of excipient measured by a glass electrode, 1 g in 100 g of water at room temperature. It is filed as physicochemical. Particulars: aqueous solution or suspension. From the text: In general we observed a best stabilization where each of the constituents being incorporated into a composition has a pH less than 9, preferably less than 8; but can have pH above 5. […] We have concluded that the excipients, being in contact with olmesartan medoxomil, being incorporated into a composition should preferably have a pH less that 8 if measured by a glass electrode in an aqueous solution or suspension containing 1 g of said excipient in 100 g of water at room temperature. Thus the pH of excipents uses in examples is as follows; lactose: about 5.2, L-HPC: about 6.7, MCC: about 6.7, stearic acid: about 5.4, Mg stearate: about 9.5, coating suspension (Example 3): about 6.6.

Series [2] in a line: Stability of bulk olmesartan medoxomil in solution at different pH. The class given is physicochemical. Here is the method:
The main degradation product is olmesartan acid. […] In a solution at pH=7 the amount of formed olmesartan acid increases by 0.5% in 24 hours, while in 1M HCl the amount increases by approximately 6%. The amounts of individual and total impurities are measured in area % and determined by HPLC using the following procedure: a sample solution was prepared by diluting quantity of pulverized tablet equivalent to 25 mg of olmesartan medoxomil in 50 ml volumetric flask to volume with diluent (Eluent A+Eluent B=50%/50%). Column Waters Xbridge C18, 150×4.6 mm, 3.5 μm was used and eluted by Eluent A (0.025 M KH2PO4 adjusted to pH=2.5 with 50% H3PO4) and Eluent B (acetonitrile) with following gradient: A:B=100:0, from 15 to 30 minutes A:B=70:30, after 30 min A.B=0:100. Flow rate was […], Injection volume was 20 μl, column temperature was 30° C., detection wavelength at 225 nm.

With `CCCCCCCCCCCCCCCCCC(=O)O` [stearic acid], in series [1], the pH of excipient entry was “about 5.4”. On to `CCCc1nc(C(C)(C)O)c(C(=O)OCc2oc(=O)oc2C)n1Cc1ccc(-c2ccccc2-c2nnn[nH]2)cc1` [olmesartan medoxomil, 4-(1-hydroxy-1-methylethyl)-2 propyl-1-[[2′-(1H-tetrazol-5-yl) [1,1′-biphenyl]-4-yl]methyl]-1H-imidazole-5-carboxylic acid (5-methyl-2-oxo-1,3-dioxol-4-yl)methyl ester], for which the “Hydrolysis at basic conditions” value in series [2] (basic conditions) was “almost completely hydrolyzes”. Further, the “pH range in which most stable” value in series [2] (bulk) was 3-5. For the same compound, the “Increase of amount of formed olmesartan acid” value is recorded as “approximately 6%” in series [2] (in 1M HCl) and 0.5% in series [2] (solution at pH=7, 24 hours). For the compound `OC[C@H]1O[C@@H](O[C@H]2[C@H](O)[C@@H](O)C(O)O[C@@H]2CO)[C@H](O)[C@@H](O)[C@H]1O` (stereo partly shown) [lactose], the pH of excipient result in series [1] was “about 5.2”. Take `CCCCCCCCCCCCCCCCCC(=O)[O-].CCCCCCCCCCCCCCCCCC(=O)[O-].[Mg+2]` [Mg stearate]: the pH of excipient result in series [1] is “about 9.5”.
